The assay has as its system CEM cells HIV-1 protection, formazan growth assay. The assay is described as follows: NCI AIDS Antiviral Assay. The note with it: for IC50: measured here: growth of uninfected CEM cells. A digest of the protocol:
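Category rules: moderately active means at least 50% protection on retest, and confirmed active means 100% protection reproducibly. The underlying data came from a formazan growth assay in HIV-1-infected CEM cells.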

Activity calls are given as the source filed them.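 Rule for the calls: active = compounds giving half or more protection of infected cells from virus-caused growth loss, again on retest; inactive = the rest.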 Where a SMILES comes first, the peptide text is derived from it. Some results are limits rather than exact numbers.

Usually EC50 stands for the concentration needed to bring the measured effect to its halfway point. The term IC50 denotes the point on the concentration scale where inhibition reaches its midpoint. As for `C/C(=N\NC(N)=O)C(CN(C)C)C(c1ccccc1)c1c(O)c2ccccc2oc1=O` (stereo not drawn), the EC50 was > 91.2 µM and the IC50 came to 66.1 µM.
In the case of `ClC(=C(c1ccc(OC2CCCCO2)cc1)c1ccc(OC2CCCCO2)cc1)c1ccccc1` (stereo not drawn), the EC50 was > 100 µM and the concentration for half-maximal inhibition (IC50) turned out to be 87.1 µM.
On the same counts, the results for `CCOc1cc2c(cc1C(C)c1ccc(OC)cc1)OCO2` (stereo not drawn) are > 33.1 µM and 0.214 µM.
In the case of `O=C1C2C=CC(n3[nH]c(=O)n(Cc4ccccc4)c3=O)CC2C(=O)N1c1ccc(Br)cc1` (stereo not drawn), the EC50 is > 501 µM and the IC50 was 135 µM.
On the same counts, the results for `O=c1ccn([C@@H]2O[C@@H]3COC(c4c(F)cccc4Cl)N(O)[C@@H]3C2O)c(=O)[nH]1` (stereo partly drawn) are > 200 µM and > 200 µM.
In the case of `COc1ccc(NC(=O)CSc2nc(C)nc3c2sc(=S)n3-c2ccccc2)cc1`, the EC50 was > 200 µM and the IC50 was > 200 µM.
Take `c1ccc2c3[nH]c(c2c1)=Nc1ccc(cc1)-c1nc2ccc(cc2o1)N=c1[nH]c(c2ccccc12)=Nc1ccc2nc(oc2c1)-c1ccc(cc1)N=3`: the EC50 was > 200 µM and the IC50 came out at 37.2 µM.
For the compound `CC1OC(OC2C(Oc3c(-c4ccc(O)c(O)c4O)oc4cc(O)ccc4c3=O)OC(CO)C(O)C2O)C(O)C(O)C1O` (stereo not drawn), the EC50 is > 200 µM and the IC50 is 21.9 µM.
Take `NNC(=S)N/N=C(\c1nc2ccc(Cl)cc2[nH]c1=O)C(O)c1cccc([N+](=O)[O-])c1` (stereo not drawn): the EC50 is > 562 µM and the IC50 worked out at 120 µM.
`O=C1CSC2=NC3=C(COC/C3=C\c3ccc(F)cc3)C(c3ccc(F)cc3)N12` (stereo not drawn): the result was inactive.
As to `Cc1nc2ccc(S(=O)(=O)Nc3nccs3)cc2c(=O)n1NS(=O)(=O)c1nccs1`, the EC50 is > 200 µM and the IC50 was 49 µM.
`CCN(CC)c1cc2c3c(c1)CCCN3CCC2`: the EC50 is > 100 µM and the IC50 is 95.5 µM.
Turning to `O=C(/C=C/c1ccccc1Cl)c1ccc(Cl)cc1Cl`, the EC50 is > 3.31 µM and the IC50 is > 3.31 µM.
On to `COc1ccccc1S(=O)Nc1ccccc1` (stereo not drawn), for which the EC50 is > 200 µM and the IC50 is > 200 µM.
For `CCOC(=O)CN1CCC(C(O)c2cc3ccccc3[nH]2)CC1` (stereo not drawn), the EC50 is > 537 µM and the IC50 came out at 525 µM.
Consider `CC1(C)CC(=O)C2=C(C1)NC(=S)C(C#N)C2c1ccccc1` (stereo not drawn), for which the EC50 was > 85.1 µM and the IC50 was determined as 32.4 µM.
Take `CC(C)(C)OC(=O)NCC(=O)NC1C/C(=N\O)c2sccc21` (stereo not drawn): the EC50 was > 200 µM and the IC50 was > 200 µM.
On to `O=C(CN1CCCCC1)c1ccc(CCc2ccc(C(=O)CN3CCCCC3)cc2)cc1`, for which the EC50 was > 200 µM and the IC50 worked out at 95.5 µM.
For `Cn1c(=O)c(Cl)c(N=[N+]=[N-])c2ccccc21` the same measures were > 75.9 µM and 55 µM.
On to `CN(C)C(=S)N/N=C(\C(=N/NC(=S)N(C)C)c1ccccn1)c1ccccn1`, for which the EC50 was > 20 µM and the IC50 was 1.1 µM.
For `CCCCCCCCCCCCCCCC=C(c1cc(Br)cc(C(=O)OC)c1OC)c1cc(Br)cc(C(=O)OC)c1OC`, the EC50 is > 25.7 µM and the IC50 was > 25.7 µM.
Turning to `COc1cc(/C=C2/SC(=S)NC2=O)cc(OC)c1O`, the result was inactive.
Turning to `O=C1c2ccccc2N2OC3(N4CCOCC4)CCCC3C12c1ccccc1` (stereo not drawn), the EC50 was > 5.37 µM and the IC50 is > 5.37 µM.
As to `CC(=O)c1cccc(NC(=O)C(=O)Nn2c(N)nnc2N)c1`, the EC50 is > 158 µM and the IC50 is > 158 µM.
Regarding `O=[N+]([O-])c1ccc(C[N+]23CCN(CC2)CC3)cc1`, the result was inactive.
`COc1cc2ccccc2cc/c1=N\O`: the EC50 was > 200 µM and the IC50 was found to be 41.7 µM.
Regarding `COc1cc(O)c(C(=O)/C=C/c2ccc(OC)c(OCc3ccccc3)c2)c(OC)c1`, the result was inactive.
Take `COc1ccc(CCN=C2OCc3ccccc32)cc1OC`: the EC50 was > 200 µM and the IC50 came out at 11.7 µM.
As to `CCOC(=O)C(CCSC)(CCSC)C(=O)OCC`, the EC50 was > 200 µM and the IC50 is > 200 µM.
On to `CC1(C)CC(=O)C(CC(C(=O)C(=O)Nc2cc(C(F)(F)F)ccc2Cl)C(=O)c2ccco2)C(=O)C1` (stereo not drawn), for which the EC50 is > 51.3 µM and the IC50 is 42.7 µM.
Turning to `C1CCC2(CC1)SSC1(CCCCC1)S2`, the EC50 was > 200 µM and the IC50 worked out at 110 µM.
Turning to `N#C/C(=C\c1ccc(O)c(O)c1)C(=S)NCc1ccccc1`, the EC50 is > 200 µM and the IC50 was 32.4 µM.
With `N#C/C(=C\c1ccc2[nH]ccc2c1)C(=O)c1ccc(O)c(O)c1`, the EC50 is > 589 µM and the IC50 was 102 µM.
Consider `O=[N+]([O-])c1ccc(N=Nc2ccc3c(c2)-c2ccccc2C3=P(c2ccccc2)(c2ccccc2)c2ccccc2)cc1`, for which the EC50 is > 200 µM and the IC50 came to 33.1 µM.
For `O=C(c1ccccc1)c1ccc(COc2ccc(C(c3c(O)c4ccccc4oc3=O)c3c(O)c4ccccc4oc3=O)cc2)cc1` the same measures were > 200 µM and 35.5 µM.
On the same counts, the results for `COC(=O)C1C(c2ccccc2)=N[C@@H](c2ccccc2)[C@H]1C(=O)OC` (stereo partly drawn) are > 11.2 µM and > 11.2 µM.
Consider `N#CC(=N)c1ncn(CCO)c1NC(=O)C(F)(F)F`, for which the EC50 is > 200 µM and the IC50 is > 200 µM.
As for `O=[N+]([O-])c1ccc(Cc2nc3ccccc3s2)cc1`, the EC50 is > 132 µM and the IC50 was determined as 38 µM.
With `C[C@]12CCC(=O)C=C1CC[C@@H]1C2CC[C@]2(C)NC(=O)C(C#N)CC12` (stereo partly drawn), the outcome was inactive.
Regarding `O=C1c2ccccc2C(=O)N1Cc1ccccc1`, the EC50 was > 200 µM and the IC50 is > 200 µM.
Turning to `CCSc1nnc(-c2ccccc2)nc1Cc1ccc(OC)cc1`, the EC50 was > 14.8 µM and the concentration for half-maximal inhibition (IC50) is > 14.8 µM.
In the case of `COC(=O)c1cc(C(c2cc(C(=O)OC)c(O)cc2C)C(Cl)(Cl)Cl)c(C)cc1O`, the EC50 was > 200 µM and the IC50 was found to be 5.75 µM.
Turning to `O=C(Nc1ccccc1)OCc1nc2c([nH]1)C(=O)C=CC2=O`, the outcome was inactive.
For `CCOc1ccc(NC(=O)CC2C(=O)Nc3ccccc3S2=O)cc1` (stereo not drawn), the EC50 is > 7.59 µM and the IC50 was > 7.59 µM.
`O=C(O)c1cccc(/C=C/c2ccc(N=Nc3c(O)cc(O)cc3C(=O)O)cc2C(=O)O)c1`: the EC50 is > 200 µM and the IC50 was determined as 158 µM.
Take `CCOC(=O)C(=O)Nc1c(C)cccc1C`: the EC50 is > 1120 µM and the IC50 is > 1120 µM.
`COC(=O)C1=CC(NC(=O)OCc2ccccc2)C(C(=O)c2ccccc2)C[C@@H]1Sc1ccccc1` (stereo partly drawn): the result was inactive.
For `c1ccc2c3nnc(c2c1)SCCCSc1nnc(c2ccccc12)SCCCS3`, the EC50 is > 200 µM and the IC50 is > 200 µM.
As for `[N-]=[N+]=NC1CC(n2cc(CO)c(=O)[nH]c2=O)OC1CO` (stereo not drawn), the EC50 is > 437 µM and the IC50 came to 240 µM.
On the same counts, the results for `O=[N+]([O-])/C(Cl)=C(\Nc1ccccc1)C(Cl)=C(Cl)Cl` are > 200 µM and 32.4 µM.
Take `C=C1CCC/C(=N/NC(N)=O)C12CC2`: the EC50 was > 200 µM and the IC50 was > 200 µM.
For `CC(C)CC(NC(=O)C(CO)NC(=O)C(CCCCN)NC(=O)C(CCCCN)NC(=O)C(NC(=O)CNC(=O)C(C)NC(=O)C(CCCN=C(N)N)NC(=O)C(NC(=O)C(N)C(C)C)C(C)C)C(C)C)C(=O)O` (stereo not drawn) (H-VVRAGVKKSL-OH; configuration not given here), the result was inactive.
As for `Oc1ccc(Cl)cc1Sc1cc(Cl)ccc1O`, the EC50 is > 200 µM and the IC50 worked out at 7.41 µM.
For `CCOC(=O)N1Cc2ccoc2C1`, the EC50 was > 75.9 µM and the half-inhibitory concentration (IC50) was > 75.9 µM.
Regarding `c1ccc(OCC[P+](c2ccccc2)(c2ccccc2)c2ccccc2)cc1`, the EC50 was > 200 µM and the IC50 is 0.501 µM.
For `CC1CCC2(NC1)OC1CC3[C@@H]4CC=C5C=CCC[C@]5(C)C4CC[C@]3(C)C1C2C` (stereo partly drawn) the same measures were > 9.55 µM and > 9.55 µM.
As to `CC(C)Oc1cc2c(c3oc(=O)cc(-c4ccccc4)c13)C(=O)[C@H](C)[C@@H](C)O2`, the EC50 was > 200 µM and the IC50 was found to be 51.3 µM.
For the compound `Cc1cccc(C)c1NC(=O)C(C#N)C1=C(Cl)C(=O)c2ccccc2C1=O` (stereo not drawn), the EC50 is > 26.3 µM and the IC50 amounted to 8.71 µM.
Turning to `N#Cc1c(N)c(-c2ccc(Cl)cc2)c(F)c2ccccc12`, the EC50 is 178 µM and the IC50 is > 200 µM.
On the same counts, the results for `Cc1ccc(S(=O)(=O)OC2C3OC(C)(C)OC3OC2C2CSC(=S=O)S2)cc1` (stereo not drawn) are > 67.6 µM and > 67.6 µM.
Consider `COc1ccc(C2C(C#N)=C(N)C(C#N)=C3Oc4ccccc4N32)cc1` (stereo not drawn), for which the EC50 was > 200 µM and the IC50 was > 200 µM.
Regarding `Cc1cc2c(C)n(Cc3ccc(Cl)cc3Cl)nc2c(C#N)c1C`, the EC50 was > 20.9 µM and the IC50 is > 20.9 µM.
Take `N#Cc1c(-c2ccccc2)cn2c1[nH]c(=O)c1ccccc12`: the EC50 was > 200 µM and the IC50 came out at 30.2 µM.
In the case of `CCCCCCCCCCCCSSC(=S)OC(C)C`, the EC50 was > 200 µM and the IC50 is > 200 µM.
Regarding `CNC(=S)N1CCN(C(C)=O)C1=S`, the EC50 was > 200 µM and the IC50 is > 200 µM.
Regarding `CCOC(=O)C1N(S(=O)(=O)c2ccc(C)cc2)CCC12C(c1ccc(OC)cc1)NC1CCCCC12` (stereo not drawn), the outcome was inactive.
As to `CC(NC(=O)CNC(=O)C(N)CO)C(=O)NC(CCC(=O)O)C(=O)NC(CCCCN)C(=O)NC(CO)C(=O)NC(CCCCN)C(=O)NC(CCCCN)C(=O)NC(CCCCN)C(=O)NCC(=O)NC(CO)C(=O)NC(CC(N)=O)C(=O)NC(C)C(=O)NC(Cc1cnc[nH]1)C(=O)NC(CO)C(=O)O` (stereo not drawn) (H-SGAEKSKKKGSNAHS-OH; configuration not given here), the outcome was inactive.
With `CC1(C)CC(=O)C(CC2C(=O)c3ccccc3C2=O)C(=O)C1C(=O)C(=O)Nc1cccc2ccc(O)cc12` (stereo not drawn), the EC50 was > 51.3 µM and the IC50 is > 51.3 µM.
`NC(=Nc1ccccc1)N/N=C/c1c[nH]c2ccccc12`: the EC50 is > 380 µM and the IC50 was 0.224 µM.

These data come from PubChem BioAssay AID179 (DTP/NCI, 2004).
